Data on 1 compound can be found in patent US20090246290A1, “Lipid metabolism improving agent containing hydrogen molecules” (priority 2006, published 2009).

The subject of series [1] is apoE knockout mice (apoE-KO mice). Conditions: 11 weeks after hydrogen administration, approximately 2% hydrogen gas inhalation. The text has this: (§1) The size of this container was as follows: W: 550 mm; L: 400 mm; and H: 300 mm.
(§2) Then, effects on body fat and the liver were examined. 9-week-old male apoE-KO mice were placed in cages (4 mice each). One group was designated as a control group and normal air was supplied thereto.
11 weeks after hydrogen administration, the mice were subjected to measurement of muscle force. Upon measurement, each mouse was allowed to hold a mesh wire of the ceiling and the time period until it fell from the ceiling was determined.

For series [2] the test system is unchanged. Conditions: inhalation of gas mixture with approximately 2% hydrogen gas.
Text: as §1, §2

The test system is the same in series [3]. Conditions: approximately 2% hydrogen gas inhalation, vs control group. As to the method: as §1, §2
Next, each mouse was analyzed with an X-ray CT for laboratory animals (LaTheta LCT-100A, Aloka Co., Ltd.). General anesthesia induction was carried out by supplying an anesthetic gas mixture (oxygen: 0.3 L/min; nitrous-oxide gas: 0.7 L/min; Sevofrane: 3% (Maruishi Pharmaceutical Co., Ltd.)) to each mouse with the use of a general anesthesia apparatus for small animals (Soft Lander, NeuroScience, Inc). CT scanning was carried out under anesthesia so as to obtain whole-body images (FIG. 9, upper images). Then, fat regions were determined based on CT values so as to specify subcutaneous fat and visceral fat (FIG. 9, lower images). Each cross-sectional area was multiplied by the thickness so as to obtain the volume, followed by estimation of the fat and muscle weights. […] In addition, fat percentages were obtained by the following equation.
Fat percentage (%)=fat [visceral fat+subcutaneous fat]/(fat [visceral fat+subcutaneous fat]+muscle)×100

The conditions of series [4]: hydrogen pressure of 1 atmosphere, room temperature; cited from earlier work.
The test system of series [5] is apoE knockout mice (apoE-KO mice). In words: Serum items, organ weights and fat accumulated in the liver 12 weeks after hydrogen gas inhalation. It counts as in vivo, mouse. Conditions: 12 weeks hydrogen gas inhalation, vs control group. As to the method: The amounts of the following items in serum were measured: total cholesterol, LDL cholesterol, HDL cholesterol, neutral fat, AST, ALT, creatinine kinase, total protein, lactate dehydrogenase, urea nitrogen, total bilirubin, creatinine, alkaline phosphatase, choline esterase, and albumine. […] Each liver was fixed with 4% paraformaldehyde overnight, followed by dehydration with sucrose. Thereafter, frozen sections were prepared and stained with Oil-Red O. Then, the amount of lipids accumulated in the liver was calculated (FIG. 13A, images). The stained portions indicate fat accumulation.

Regarding `[HH]` [hydrogen gas], the “muscle force: time period until mouse fell from mesh wire of the ceiling” value in series [1] is given as “significantly long time”. Besides, the “weight increases vs control group” value in series [2] was “significantly suppressed”. Besides, in series [3], the “amount of subcutaneous fat (CT)” value was “significantly decreased”; the “amount of total fat (CT)” value is given as “significantly decreased”; the “amount of visceral fat (CT)” value was “significantly decreased”; the “fat percentage (fat/(fat+muscle) x100, CT)” value is given as “more significantly decreased”. For the same compound, in series [4], the “hydrogen dissolved in 1 L of water” value was “approximately 17.5 mL”. Further, in series [5], the kidney weight entry is “significantly decreased”, the liver weight entry is given as “significantly decreased”, the “serum ALT” value is on record as “no difference was observed” and the “serum AST” value is reported as “no difference was observed”. In addition, in series [5], the “serum HDL cholesterol” value is “no difference was observed”, the “serum LDL cholesterol” value is “no difference was observed”, the serum albumine entry is recorded as “no difference was observed” and the serum alkaline phosphatase result is given as “no difference was observed”. Moreover, in series [5], the serum choline esterase result is recorded as “no difference was observed”, the serum creatinine entry is reported as “no difference was observed”, the serum creatinine kinase result is on record as “no difference was observed” and the serum lactate dehydrogenase result is reported as “no difference was observed”. In series [5], the serum neutral fat entry is listed as “no difference was observed”, the serum total bilirubin result is “no difference was observed”, the serum total cholesterol entry is “no difference was observed” and the serum total protein result is on record as “no difference was observed”. In series [5], the serum urea nitrogen entry is “no difference was observed”.
